Source: patent US11753603B2, “Acidic cleaning and disinfecting compositions comprising a citric/methansulfonic acid mixture” (THE CLOROX COMPANY, priority 2020, dated 2023)

Test system: bacterial population
Assay: Suspension test (kill in 10 minutes)
Conditions: 0.1% citric acid alone
Procedure: Formula A of Table I includes addition of LAE (0.1%) plus APG (1.0%) and enables the use of citric acid levels as low at 0.1% with complete kill in suspension test in 10 minutes.

O=C(O)CC(O)(CC(=O)O)C(=O)O [citric acid]
kill in suspension test: little or no kill
